We go through one molecule from patent publication US20230103142A1, “SMALL MOLECULE REGULATORS OF NOTCH1 AND USES THEREOF” (THE PENN STATE RESEARCH FOUNDATION, priority 2020, published 2023).

Each structure is given as a SMILES string. Read-outs that look alike come from different tables or passages of the source.

One assay concerns MDA-MB-231 TNBC cells. Description: cell viability assay. It counts as cell-based. Conditions: for IC50: read-out: IC50 cell growth. The protocol: Synergistic effects of combinations were calculated via isobologram analysis.
Assay [1] deals with NICD and HES1 in SW620 cells. The settings on record: SW620, IC50 concentration. The method, then: (§1) Protein extraction and western blotting: Mammalian Protein Extraction Reagent (Thermo Scientific, Rockford, Ill., USA) was used to extract total protein from pCMV/HCT116, C4, and C5 cells as well as bladder cancer cells were prepared with the according to the manufacturer's instructions. Western blotting was performed using specific antibodies against Notch1 (Cat: 3447S), Bcl-2 (Cat: 2872S), E-cadherin (Cat: 3195S), N-cadherin (Cat: 13116S), Snail (Cat: 3879S), β-catenin (Cat: 8480S), NF-κB (p65), Bax (Cat: 5023S), cleaved PARP (Cat: 9541L) (Cell Signaling Technology; Danvers, Mass., USA), and β-actin (Santa Cruz Biotechnologies, Dallas, Tex., USA), HES1 (Genescript; Lot QC1851, Piscataway, N.J., USA). Actin presented in the images represent the loading control for one or more markers from same cell lysates. Chemiluminescence was used to detect the positive bands on the membrane.

Assay [2] concerns NICD and HES1 in HCT116 cells. Conditions: HCT116, IC50 concentration. The protocol:
as §1

Assay [3] relates to HCT116 cells. The settings on record: read-out: IC50 cell viability.
Description: Six biological replicates used for MTT assays and it was repeated twice for each experiment. […] The anchorage-independent growth assay was performed and repeated in triplicate.
The test system of another assay is Notch1/HCT116 clone C4. The settings on record: C4, IC50 concentration. The method, then:
(§2) Flow cytometry analysis: 0.3×10^6 cells seeded in a 6 well plate and were cultured until 70-80% confluence was achieved. […] To quantify apoptosis, flow cytometry analysis of the Annexin V-FITC against Propidium Iodide (PI) assay was performed following a previously described protocol. The Apoptosis detection kit was purchased from BD Pharminogen™, San Diego, Calif., USA. All experiments were repeated in triplicate to achieve statistical relevance.

A further assay relates to pCMV/HCT116 cells. Conditions: pCMV/HCT116, IC50 concentration. The method, then: as §2
The subject of a further assay is Notch1/HCT116 clone C5. The settings on record: C5, IC50 concentration. The method, then:
as §2

In assay [4] the test system is HCT116 cells. The settings on record: HCT116, 24 h. The method, then:
as §2

The next assay deals with SW-620 cells. The settings on record: SW-620, 24 h. The protocol: as §2
A further assay deals with Notch3 in HCT116 cells. Description: immunoblot with Notch3 antibody. The settings on record: HCT116, IC50 concentration, 12 h and 24 h.
In assay [5] the test system is proteasome in ALDH+ cells. Conditions: 15 and 30 min. An excerpt: Commercially available positive and negative controls were used for these experiments. […] Next, ubiquitination-associated NRR of Notch 1 degradation were examined.

Excerpt for Notch3 in HCT116 cells: Data are presented as the mean±standard deviation (SEM/SD) of three independent experiments. The Student's t-test was used to calculate the statistical significance between the vehicle and treatment at each concentration. *p<0.05 and **p<0.01.

Take `CC1=C(CO)C(=O)O[C@@H]([C@@H](C)[C@H]2CC[C@H]3[C@@H]4C[C@H]5O[C@]56[C@@H](OC(=O)c5ccccn5)C=CC(=O)[C@]6(C)[C@H]4CC[C@]23C)C1` [ASR490, Pyridine-2-carboxylic acid {17-[1-(5-hydroxymethyl-4-methyl-6-oxo-3,6-dihydro-2H-pyran-2-yl)-ethyl]-10,13-dimethyl-1-oxo, 4,6,7,8,9,10,11,12,13,14,15,16,17-tetradecahydro-20-oxacyclopropa[5,6]cyclopenta[a]phenanthren-4-yl}ester]: the IC50 was 0.76 µM in the assay with MDA-MB-231 TNBC cells (MDA-MB-231, 24 h); 0.444 µM in the assay on MDA-MB-231 TNBC cells (MDA-MB-231, 48 h); 0.75 µM in the assay on HCT116 cells [3] (HCT 116, 24-h); 0.6 µM in the assay on HCT116 cells [3] (HCT 116, 48-h). For the same molecule, in the assay with MDA-MB-231 TNBC cells (⅕th of IC50 of ASR490 (152 nM) in combination with 1/20th of IC50 of DOX (46.4 nM)), the “inhibition of proliferation by combination” value turned out to be 30%. Further, in the assay with MDA-MB-231 TNBC cells (⅕th of IC50 of ASR490 alone), the growth inhibition alone entry was “did not inhibit the growth”. Moreover, the “expression of NICD and HES1 protein” value in assay [1] and in assay [2] was “Significant downregulation” throughout. Also, the induction of apoptosis with Notch1/HCT116 clone C4 amounted to 13.4%; in the assay with pCMV/HCT116 cells, 25.8%; in the assay on Notch1/HCT116 clone C5 it was 13.2%; with HCT116 cells [4], 19.9%; in the assay on SW-620 cells, 9.57%. Moreover, in the assay on Notch3 in HCT116 cells, the Notch3 expression result was “no change”. In addition, the proteasome inhibition entry in assay [5] is “not a proteasomal inhibitor”.
